From patent publication US10961215B2, “N-aryl and N-heteroaryl piperidine derivatives as liver X receptor beta agonists, compositions, and their use” (Merck Sharp & Dohme Corp., priority 2016, dated 2021)

Tests used:
[1] = target: T1, GST tagged LXRalpha LBD (ligand binding domain) (Homo sapiens, UniProt Q13133); experiment: LanthaScreen TR-FRET Liver X Receptor Coactivator Assay, LXR alpha-LBD (co-activator recruitment; IP and % Emax relative to T0901317); type: biochemical; settings: for LXR alpha IP (nM) / EC50: Inflection Point of co-activator recruitment, LXR alpha-LBD, TR-FRET; for Emax: efficacy at max dose in relation to reference T0901317, LXR alpha-LBD, read-out: LXR alpha actiivty at max dose (%)
T1 construct: purchased Invitrogen pv4655
T1 sequence (Q13133 209-447 limits assumed): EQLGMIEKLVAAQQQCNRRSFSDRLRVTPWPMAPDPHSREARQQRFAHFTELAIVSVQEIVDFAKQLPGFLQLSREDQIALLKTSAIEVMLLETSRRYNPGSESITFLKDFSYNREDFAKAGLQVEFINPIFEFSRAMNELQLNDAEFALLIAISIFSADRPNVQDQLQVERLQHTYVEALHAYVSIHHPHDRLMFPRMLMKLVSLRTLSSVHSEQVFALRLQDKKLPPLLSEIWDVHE
How it was run: (§1)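 TR-FRET coactivator recruitment; LBD + cpd, then fluorescein coactivator peptide/Tb anti-GST Ab mix; RT incubation; IP and Emax vs T0901317.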

[2] = target: T2, GST tagged LXRbeta LBD (ligand binding domain) (Homo sapiens, UniProt P55055); experiment: LanthaScreen TR-FRET Liver X Receptor Coactivator Assay, LXR beta-LBD (co-activator recruitment; IP and % Emax relative to T0901317); type: biochemical; settings: for EC50: Inflection Point of co-activator recruitment, LXR beta-LBD, TR-FRET; for Emax: efficacy at max dose in relation to reference T0901317, LXR beta-LBD, read-out: LXR beta actiivty at max dose (%)
T2 construct: purchased Invitrogen pv4658.pps
T2 sequence (P55055 222-460 limits assumed): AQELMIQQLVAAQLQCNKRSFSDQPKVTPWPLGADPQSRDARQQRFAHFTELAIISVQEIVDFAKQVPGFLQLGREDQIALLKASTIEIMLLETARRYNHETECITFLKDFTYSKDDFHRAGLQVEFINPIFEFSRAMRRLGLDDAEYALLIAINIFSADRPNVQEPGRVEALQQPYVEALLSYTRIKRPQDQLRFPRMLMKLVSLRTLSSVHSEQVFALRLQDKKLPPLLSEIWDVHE
How it was run: as §1

| LXR alpha IP (nM) [1] | Emax [1] [%] | EC50 [2] [nM] | Emax [2] [%] | EC50 [1] [nM] | SMILES |
| --- | --- | --- | --- | --- | --- |
| No IP | 13 | 425 | 94 | – | COc1cccc([C@@](O)(C(=O)NC[C@H](F)CC2CCN(c3ccc(C(=O)N(C)C)c(Cl)n3)CC2)C(F)(F)F)c1 [Example 3-7, 2-chloro-6-(4-((R)-2-fluoro-3-((R)-3,3,3-trifluoro-2-hydroxy-2-(3-methoxy-phenyl)propanamido)propyl)piperidin-1-yl)-N,N-dimethylnicotinamide] |
| No IP | 8 | 247 | 59 | – | COc1cccc([C@@](O)(C(=O)N(C)CCCC2CCN(c3ccc(C(=O)N(C)C)c(Cl)c3)CC2)C(F)(F)F)c1 [Example 4-1, (R)-2-chloro-N,N-dimethyl-4-(4-(3-(3,3,3-trifluoro-2-hydroxy-2-(3-methoxyphenyl)-N-methylpropanamido)propyl)piperidin-1-yl)benzamide] |
| No IP | 0 | 217 | 49 | – | CCOc1cccc([C@@](O)(C(=O)N(C)CCCC2CCN(c3ccc(C(=O)N(C)C)c(Cl)c3)CC2)C(F)(F)F)c1 [Example 4-2, (R)-2-chloro-4-(4-(3-(2-(3-ethoxyphenyl)-3,3,3-trifluoro-2-hydroxy-N-methylpropanamido)propyl)piperidin-1-yl)-N,N-dimethylbenzamide] |
| No IP | 0 | 67 | 53 | – | CN(C)C(=O)c1ccc(N2CCC(CCCN(C)C(=O)[C@](O)(c3cccc(C4CC4)c3)C(F)(F)F)CC2)cc1Cl [Example 4-3, (R)-2-chloro-4-(4-(3-(2-(3-cyclopropylphenyl)-3,3,3-trifluoro-2-hydroxy-N-methylpropanamido)propyl)piperidin-1-yl)-N,N-dimethylbenzamide] |
| No IP | 8 | 229 | 50 | – | CN(C)C(=O)c1ccc(N2CCC(CCCN(C)C(=O)C(C)(C)c3ccccc3)CC2)cc1Cl [Example 4-5, 2-chloro-4-(4-(3-(N,2-dimethyl-2-phenylpropanamido)propyl)piperidin-1-yl)-N,N-dimethylbenzamide] |
| – | 23 | 471 | 73 | 3350 | CC(C)C(O)(C(=O)N(C)CCCC1CCN(c2ccc(C(=O)N(C)C)c(Cl)c2)CC1)C(F)(F)F (stereo not drawn) [Example 4-8, 2-chloro-4-(4-(3-(2-hydroxy-N,3-dimethyl-2-(trifluoromethyl)butanamido)propyl)piperidin-1-yl)-N,N-dimethyl-benzamide] |
| No IP | 10 | 162 | 67 | – | CC(C)N(C)C(=O)c1ccc(N2CCC(CCCN(C)C(=O)[C@](O)(c3ccccc3)C(F)(F)F)CC2)cc1Cl [Example 4-10, (R)-2-chloro-N-isopropyl-N-methyl-4-(4-(3-(3,3,3-trifluoro-2-hydroxy-N-methyl-2-phenylpropanamido)propyl)piperidin-1-yl)benzamide] |
| No IP | 0 | 120 | 40 | – | CN(C)C(=O)c1ccc(N2CCC(CCCCN(C)C(=O)C(O)(c3ccccc3)C(F)(F)F)CC2)cc1Cl (stereo not drawn) [Example 4-11, 2-chloro-N,N-dimethyl-4-(4-(4-(3,3,3-trifluoro-2-hydroxy-N-methyl-2-phenylpropanamido)butyl)piperidin-1-yl)benzamide] |
| – | 14 | 610 | 95 | 3510 | CN(C)C(=O)c1ccc(N2CCC(CCCNC(=O)C(O)(c3ccccc3)C(F)(F)F)CC2)cc1Cl (stereo not drawn) [Example 5-1, 2-chloro-N,N-dimethyl-4-(4-(3-(3,3,3-trifluoro-2-hydroxy-2-phenylpropanamido)propyl)piperidin-1-yl)benzamide] |
| No IP | 11 | 686 | 80 | – | CC(C)C(O)(C(=O)NCCCC1CCN(c2ccc(C(=O)N(C)C)c(Cl)c2)CC1)C(F)(F)F (stereo not drawn) [Example 5-2, 2-chloro-4-(4-(3-(2-hydroxy-3-methyl-2-(trifluoromethyl)butanamido)propyl)piperidin-1-yl)-N,N-dimethyl-benzamide] |
| – | 27 | 380 | 118 | 1670 | CN(C)C(=O)c1ccc(N2CCC(CCCNC(=O)C(O)(c3ccccc3)C(F)(F)C(F)(F)F)CC2)cc1Cl (stereo not drawn) [Example 5-3, 2-chloro-N,N-dimethyl-4-(4-(3-(3,3,4,4,4-pentafluoro-2-hydroxy-2-phenyl-butanamido)propyl)piperidin-1-yl)benzamide] |
| No IP | 16 | 561 | 72 | – | CN(C)C(=O)c1ccc(N2CCC(CCCNC(=O)C(C)(C)c3ccccc3)CC2)cc1Cl [Example 5-4, 2-chloro-N,N-dimethyl-4-(4-(3-(2-methyl-2-phenylpropanamido)propyl)piperidin-1-yl)benzamide] |
| No IP | 0 | 1510 | 39 | – | CN(C)C(=O)c1ccc(N2CCC(CCCNC(=O)OCc3ccccc3)CC2)nc1Cl [Example 5-5, benzyl 3-(1-(6-chloro-5-(dimethylcarbamoyl)pyridin-2-yl)piperidin-4-yl)propyl-carbamate] |
| – | 23 | 267 | 105 | 3700 | CN(C)C(=O)c1ccc(N2CCC(CCCNC(=O)C(O)(c3ccccc3)C(F)(F)F)CC2)nc1Cl (stereo not drawn) [Example 5-6, 2-chloro-N,N-dimethyl-6-(4-(3-(3,3,3-trifluoro-2-hydroxy-2-phenylpropanamido)propyl)piperidin-1-yl)nicotinamide] |
| No IP | 27 | 636 | 106 | – | CC(C)C(O)(C(=O)NCCCC1CCN(c2ccc(C(=O)N(C)C)c(Cl)n2)CC1)C(F)(F)F (stereo not drawn) [Example 5-7, 2-chloro-6-(4-(3-(2-hydroxy-3-methyl-2-(trifluoromethyl)butanamido)propyl)piperidin-1-yl)-N,N-dimethylnicotinamide] |
| – | 28 | 105 | 104 | 5140 | CN(C)C(=O)c1ccc(N2CCC(CCCNC(=O)[C@](O)(c3ccccc3)C(F)(F)F)CC2)nc1Cl [Example 5-8, (R)-2-chloro-N,N-dimethyl-6-(4-(3-(3,3,3-trifluoro-2-hydroxy-2-phenylpropanamido)propyl)piperidin-1-yl) nicotinamide] |
| – | 9 | 165 | 101 | 2280 | CN(C)C(=O)c1ccc(N2CCC(CCCNC(=O)[C@@](O)(c3ccccc3)C(F)(F)F)CC2)nc1Cl [Example 5-9, (S)-2-chloro-N,N-dimethyl-6-(4-(3-(3,3,3-trifluoro-2-hydroxy-2-phenylpropanamido)propyl)piperidin-1-yl) nicotinamide] |

| SMILES | LXR alpha IP (nM) [1] | Emax [1] [%] | EC50 [2] [nM] | Emax [2] [%] | EC50 [1] [nM] |
| --- | --- | --- | --- | --- | --- |
| CCN(CC)C(=O)c1ccc(N2CCC(CCCN(C)C(=O)[C@](O)(c3cccc(OC)c3)C(F)(F)F)CC2)cc1Cl [Example 4-9, (R)-2-chloro-N,N-diethyl-4-(4-(3-(3,3,3-trifluoro-2-hydroxy-2-(3-methoxyphenyl)-N-methylpropanamido)propyl)piperidin-1-yl)benzamide] | No IP | 0 | 72 | 40 | – |
